One assay deals with T1, human DGKα (Homo sapiens, UniProt P23743).
T1 construct: purchased Carna Biosciences'; inferred from the same paragraph's 'obtained from Carna Biosciences')
Description: DGKα Biochemical Activity Assay (ADP-Glo).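 Note: recombinant enzyme converting diacylglycerol in lipid micelles with ATP, ADP formed detected by luminescence, IC50 from a four-parameter nonlinear fit, geometric mean across experiments.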 In general terms: ADP-Glo first removes unused ATP, then detects ADP through luciferase.

For assay [1], the system named is Jurkat NFκB-luciferase cells. The assay is described as follows: Jurkat NFκB-Luciferase Assay.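 Note: bioluminescence read-out normalized to DMSO basal activation and to maximum enhancement at 1 µM compound, rising signal indicating stronger T-cell activation through DGKα inhibition.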 In kind it is cell-based. The note with it: Homo sapiens; Jurkat NFκB-luciferase cells activated with anti-CD3 antibody (OKT3), 2.5 hrs at 37° C., One-Glo Ex; geometric mean; read-out: DGK NFKb Luciferase EC50.

Here are results for 28 compounds from patent US11932634B2 (Gilead Sciences, Inc., priority 2021, dated 2024).

SMILES strings stand for the structures.

T1 sequence (P23743 whole entry): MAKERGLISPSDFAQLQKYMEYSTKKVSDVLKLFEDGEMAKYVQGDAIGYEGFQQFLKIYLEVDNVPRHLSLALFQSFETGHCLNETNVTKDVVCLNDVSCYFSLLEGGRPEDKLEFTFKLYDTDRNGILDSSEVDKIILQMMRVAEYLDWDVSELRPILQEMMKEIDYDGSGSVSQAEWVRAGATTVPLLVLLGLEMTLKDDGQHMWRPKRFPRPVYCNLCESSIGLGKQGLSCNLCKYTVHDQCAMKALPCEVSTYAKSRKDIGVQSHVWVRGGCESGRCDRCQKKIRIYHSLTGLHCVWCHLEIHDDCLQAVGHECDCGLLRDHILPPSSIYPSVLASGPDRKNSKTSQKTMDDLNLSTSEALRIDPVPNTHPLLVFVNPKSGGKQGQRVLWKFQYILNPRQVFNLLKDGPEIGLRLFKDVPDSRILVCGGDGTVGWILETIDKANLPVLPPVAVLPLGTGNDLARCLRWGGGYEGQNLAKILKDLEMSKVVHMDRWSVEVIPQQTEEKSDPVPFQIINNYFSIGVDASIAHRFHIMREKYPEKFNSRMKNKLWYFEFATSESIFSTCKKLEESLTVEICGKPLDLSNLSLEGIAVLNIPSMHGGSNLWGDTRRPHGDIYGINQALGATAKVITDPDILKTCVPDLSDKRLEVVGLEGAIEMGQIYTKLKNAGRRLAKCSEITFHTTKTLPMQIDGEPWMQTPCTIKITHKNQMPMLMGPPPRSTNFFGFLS

Consider `[2H]C([2H])([2H])n1c(=O)nc(N(CC(F)F)c2ccnc(C#CC(C)(C)C(F)F)c2F)c2c(F)cccc21` [Example 123, 4-[[2-(4,4-difluoro-3,3-dimethyl-but-1-ynyl)-3-fluoro-4-pyridyl]-(2,2-difluoroethyl)amino]-5-fluoro-1-(trideuteriomethyl)quinazolin-2-one], for which the IC50 against human DGKα turned out to be 6.41 nM. For the same compound, in assay [1], the EC50 worked out at 2.39 nM.
In the case of `[2H]C([2H])([2H])n1c(=O)nc(N(CC(F)F)c2ccnc(C#CC3(C(F)(F)F)CC3)c2F)c2c(F)cccc21` [Example 124, 4-[2,2-difluoroethyl-[3-fluoro-2-[2-[1-(trifluoromethyl)cyclopropyl]ethynyl]-4-pyridyl]amino]-5-fluoro-1-(trideuteriomethyl)quinazolin-2-one], the 50% inhibitory concentration (IC50) on human DGKα came to 12 nM. Besides, the concentration giving a half-maximal response (EC50) in assay [1] worked out at 1.27 nM.
The corresponding values for `CC(C)(C#Cc1nccc(N(CC(F)F)c2nc(=O)[nH]c3cccc(F)c23)c1F)C(F)(F)F` [Example 125, 4-[2,2-difluoroethyl-[3-fluoro-2-(4,4,4-trifluoro-3,3-dimethyl-but-1-ynyl)-4-pyridyl]amino]-5-fluoro-1H-quinazolin-2-one] are 40.8 nM and 2.18 nM.
For the compound `O=c1nc(N(CC(F)F)c2ccnc(C#CC3(C(F)F)CC3)c2F)c2c(F)cccc2[nH]1` [Example 126, 4-[2,2-difluoroethyl-[2-[2-[1-(difluoromethyl)cyclopropyl]ethynyl]-3-fluoro-4-pyridyl]amino]-5-fluoro-1H-quinazolin-2-one], it took 18 nM to reach half-maximal inhibition against human DGKα (IC50). Besides, in assay [1], the concentration giving a half-maximal response (EC50) turned out to be 3.37 nM.
`CC(C)(O)C#Cc1cccc2c1CCCN2c1nc(=O)[nH]c2cccc(Cl)c12` [Example 127, 5-chloro-4-[5-(3-hydroxy-3-methyl-but-1-ynyl)-3,4-dihydro-2H-quinolin-1-yl]-1H-quinazolin-2-one]: the 50% inhibitory concentration (IC50) at human DGKα came to 8.66 nM. Besides, in assay [1], the EC50 came out at 3.92 nM.
Take `[2H]C([2H])([2H])n1c(=O)nc(N(CC(F)F)c2ccnc(C#CC(C)(C)O)c2F)c2c(F)cccc21` [Example 128, 4-[2,2-difluoroethyl-[3-fluoro-2-(3-hydroxy-3-methyl-but-1-ynyl)-4-pyridyl]amino]-5-fluoro-1-(trideuteriomethyl)quinazolin-2-one]: half-maximal inhibition at human DGKα (IC50) was put at 7.36 nM. Further, in assay [1], the concentration for a half-maximal effect (EC50) was 41.2 nM.
`[2H]C([2H])([2H])n1c(=O)nc(N(CC(F)F)c2ccnc(C#CC3(C(F)F)CC3)c2F)c2c(F)cccc21` [Example 129, 4-[2,2-difluoroethyl-[2-[2-[1-(difluoromethyl)cyclopropyl]ethynyl]-3-fluoro-4-pyridyl]amino]-5-fluoro-1-(trideuteriomethyl)quinazolin-2-one] had an IC50 at human DGKα of 2.82 nM. In addition, the concentration giving a half-maximal response (EC50) in assay [1] came to 4.26 nM.
The like results for `[2H]C([2H])([2H])n1c(=O)nc(N2CCCc3c(C#CC(C)(C)O)cccc32)c2c(Cl)cccc21` [Example 130, 5-chloro-4-[5-(3-hydroxy-3-methyl-but-1-ynyl)-3,4-dihydro-2H-quinolin-1-yl]-1-(trideuteriomethyl)quinazolin-2-one] were, in that order, 5.49 nM and 16.8 nM.
The corresponding values for `CC(C)(C#Cc1nccc2c1CCCN2c1nc(=O)[nH]c2cccc(F)c12)C(F)(F)F` [Example 131, 5-fluoro-4-[5-(4,4,4-trifluoro-3,3-dimethyl-but-1-ynyl)-3,4-dihydro-2H-1,6-naphthyridin-1-yl]-1H-quinazolin-2-one] are 43.7 nM and 11.1 nM.
For `CC(F)(F)C1(C#Cc2nccc3c2CCCN3c2nc(=O)[nH]c3cccc(F)c23)CC1` [Example 132, 4-[5-[2-[1-(1,1-difluoroethyl)cyclopropyl]ethynyl]-3,4-dihydro-2H-1,6-naphthyridin-1-yl]-5-fluoro-1H-quinazolin-2-one], the IC50 against human DGKα was determined as 66.1 nM. Also, the half-maximal effective concentration (EC50) in assay [1] came out at 9.96 nM.
The corresponding values for `CC(C)(C#Cc1nccc2c1CCCN2c1nc(=O)[nH]c2ccc(F)c(F)c12)C(F)(F)F` [Example 133, 5,6-difluoro-4-[5-(4,4,4-trifluoro-3,3-dimethyl-but-1-ynyl)-3,4-dihydro-2H-1,6-naphthyridin-1-yl]-1H-quinazolin-2-one] are 23.2 nM and 4.47 nM.
Consider `CC(F)(F)C1(C#Cc2nccc3c2CCCN3c2nc(=O)[nH]c3ccc(F)c(F)c23)CC1` [Example 134, 4-[5-[2-[1-(1,1-difluoroethyl)cyclopropyl]ethynyl]-3,4-dihydro-2H-1,6-naphthyridin-1-yl]-5,6-difluoro-1H-quinazolin-2-one], for which, on human DGKα, the IC50 was 14.4 nM. For the same compound, the EC50 in assay [1] worked out at 2.52 nM.
The corresponding values for `[2H]C([2H])([2H])n1c(=O)nc(N(CC(F)F)c2ccnc(C#CC3(C(F)(F)F)CC3)c2)c2c(F)cccc21` [Example 135, 4-[2,2-difluoroethyl-[2-[2-[1-(trifluoromethyl)cyclopropyl]ethynyl]-4-pyridyl]amino]-5-fluoro-1-(trideuteriomethyl)quinazolin-2-one] are 10.6 nM and 2.23 nM.
As to `[2H]C([2H])([2H])n1c(=O)nc(N(CC(F)F)c2ccnc(C#Cc3cncn3C)c2)c2c(F)cccc21` [Example 136, 4-[2,2-difluoroethyl-[2-[2-(3-methylimidazol-4-yl)ethynyl]-4-pyridyl]amino]-5-fluoro-1-(trideuteriomethyl)quinazolin-2-one], the IC50 against human DGKα was 26.5 nM. Further, the EC50 in assay [1] turned out to be 84.4 nM.
In turn, `[2H]C([2H])([2H])n1c(=O)nc(N(CC(F)F)c2ccnc(C#Cc3cnn(C)c3)c2)c2c(F)cccc21` [Example 137, 4-[2,2-difluoroethyl-[2-[2-(1-methylpyrazol-4-yl)ethynyl]-4-pyridyl]amino]-5-fluoro-1-(trideuteriomethyl)quinazolin-2-one] yielded a half-maximal inhibitory concentration (IC50) on human DGKα of 10.2 nM. In assay [1], the half-maximal effective concentration (EC50) is 24.2 nM.
As to `[2H]C([2H])([2H])n1c(=O)nc(N(CC(F)F)c2ccnc(C#CC3(C)CC3)c2)c2c(F)cccc21` [Example 138, 4-[2,2-difluoroethyl-[2-[2-(1-methylcyclopropyl)ethynyl]-4-pyridyl]amino]-5-fluoro-1-(trideuteriomethyl)quinazolin-2-one], the IC50 at human DGKα was determined as 6.83 nM. Moreover, the EC50 in assay [1] stood at 4.59 nM.
As to `[2H]C([2H])([2H])n1c(=O)nc(N(CC(F)F)c2ccnc(C#CC(C)(C)C#N)c2)c2c(F)cccc21` [Example 139, 4-[4-[2,2-difluoroethyl-[5-fluoro-2-oxo-1-(trideuteriomethyl)quinazolin-4-yl]amino]-2-pyridyl]-2,2-dimethyl-but-3-ynenitrile], on human DGKα, inhibition was half-maximal at 18.3 nM (IC50). Moreover, the EC50 in assay [1] was 15.5 nM.
`[2H]C([2H])([2H])n1c(=O)nc(N2CCCc3c2ccnc3C#CC(C)(C)C#N)c2c(F)c(F)ccc21` [Example 140, 4-[1-[5,6-difluoro-2-oxo-1-(trideuteriomethyl)quinazolin-4-yl]-3,4-dihydro-2H-1,6-naphthyridin-5-yl]-2,2-dimethyl-but-3-ynenitrile] yielded a 50% inhibitory concentration (IC50) against human DGKα of 15.3 nM. The half-maximal effective concentration (EC50) in assay [1] is 7.54 nM.
On to `[2H]C([2H])([2H])n1c(=O)nc(N2CCCc3c2ccnc3C#CC2(C(F)(F)F)CC2)c2c(F)c(F)ccc21` [Example 141, 5,6-difluoro-1-(trideuteriomethyl)-4-[5-[2-[1-(trifluoromethyl)cyclopropyl]ethynyl]-3,4-dihydro-2H-1,6-naphthyridin-1-yl]quinazolin-2-one], for which half-maximal inhibition on human DGKα (IC50) required 6.28 nM. In addition, the EC50 in assay [1] was 2.37 nM.
On human DGKα, `[2H]C([2H])([2H])n1c(=O)nc(N2CCCc3c2ccnc3C#CC2(C(F)(F)F)CC2)c2c(F)cccc21` [Example 142, 5-fluoro-1-(trideuteriomethyl)-4-[5-[2-[1-(trifluoromethyl)cyclopropyl]ethynyl]-3,4-dihydro-2H-1,6-naphthyridin-1-yl]quinazolin-2-one] came in with an IC50 of 8.91 nM. In addition, in assay [1], the EC50 was 8.25 nM.
The like results for `CC(C)(C#N)C#Cc1cccc2c1CCCCN2c1nc(=O)[nH]c2cccc(F)c12` [Example 143, 4-[1-(5-fluoro-2-oxo-1H-quinazolin-4-yl)-2,3,4,5-tetrahydro-1-benzazepin-6-yl]-2,2-dimethyl-but-3-ynenitrile] were, in that order, 18.4 nM and 1.75 nM.
Turning to `O=c1nc(N2CCOCc3c(C#CC4(C(F)(F)F)CC4)cccc32)c2c(F)ccc(F)c2[nH]1` [Example 144], the half-maximal inhibitory concentration (IC50) against human DGKα amounted to 21.8 nM. Further, the EC50 in assay [1] was determined as 5.34 nM.
In the case of `CC1(C#Cc2cccc3c2COCCN3c2nc(=O)[nH]c3c(F)ccc(F)c23)CC1` [Example 145], the IC50 against human DGKα stood at 13 nM. Further, the concentration giving a half-maximal response (EC50) in assay [1] stood at 3.19 nM.
`O=c1nc(N2CCOCc3c(C#CC4CC4)cccc32)c2c(F)ccc(F)c2[nH]1` [Example 146] showed a concentration for half-maximal inhibition (IC50) at human DGKα of 9.59 nM. Further, in assay [1], the EC50 came out at 4.69 nM.
For the compound `CC(F)(F)C1(C#Cc2cccc3c2COCCN3c2nc(=O)[nH]c3c(F)ccc(F)c23)CC1` [Example 147], at human DGKα, the half-maximal inhibitory concentration (IC50) came to 51.9 nM. Also, the EC50 in assay [1] is 2.84 nM.
Compound `O=c1nc(N2CCCCc3c(Br)cncc32)c2c(F)c(F)ccc2[nH]1` [Example 148, 4-(6-bromo-2,3,4,5-tetrahydro-1H-pyrido[3,4-b]azepin-1-yl)-5,6-difluoroquinazolin-2(1H)-one] came in with a 50% inhibitory concentration (IC50) against human DGKα of 44.1 nM. Besides, in assay [1], the EC50 is 2.77 nM.
Regarding `O=c1nc(N2CCCCc3c(Br)cncc32)c2c(F)cccc2[nH]1` [Example 149, 4-(6-bromo-2,3,4,5-tetrahydro-1H-pyrido[3,4-b]azepin-1-yl)-5-fluoroquinazolin-2(1H)-one], the half-maximal inhibitory concentration (IC50) at human DGKα was 150 nM. Besides, the 50% effective concentration (EC50) in assay [1] came to 34.1 nM.
In turn, `CC1(C#Cc2cncc3c2CCCCN3c2nc(=O)[nH]c3ccc(F)c(F)c23)CC1` [Example 150, 5,6-difluoro-4-(6-((1-methylcyclopropyl)ethynyl)-2,3,4,5-tetrahydro-1H-pyrido[3,4-b]azepin-1-yl)quinazolin-2(1H)-one] displayed an IC50 at human DGKα of 11.2 nM. Besides, in assay [1], the half-maximal effective concentration (EC50) is 0.826 nM.

A word on the IC50: it is the point on the concentration scale where inhibition reaches its midpoint. Low readings indicate inhibition by little substance, high ones a need for much substance. As a reminder, the EC50 is the midpoint of the concentration-response curve.
